Data: US10111890B2, “9-aminomethyl minocycline compounds and uses thereof” (Paratek Pharmaceuticals, Inc., priority 2016, dated 2018)

Test: Phase 1 multiple oral dose study: safety and tolerability (TEAEs, serum chemistry)
[1] = 600 mg (n = 24), listed as omadacycline
[2] = 300, 450, 600 mg once daily x 5 days

With `CN(C)c1cc(CNCC(C)(C)C)c(O)c2c1C[C@H]1C[C@H]3[C@H](N(C)C)C(O)=C(C(N)=O)C(=O)[C@@]3(O)C(O)=C1C2=O` [Omadacycline, 9-[(2,2-dimethyl-propylamino)-methyl]-minocycline] as the molecule, how does the “Any TEAE, % of subjects” value (300 mg (n = 26)) read?
The value was “(19.2) %”.

What about the “Any TEAE, n of subjects” value (300 mg (n = 26)) of the same molecule?
The value was 5 n.

What about the “Most frequent TEAEs: Dizziness, %” value (300 mg (n = 26)) of the same molecule?
Its value is “(7.7) %”.

And the “Most frequent TEAEs: Nausea, %” value (300 mg (n = 26))?
Its value is “(7.7) %”.

And the “Most frequent TEAEs: Vomiting, %” value (300 mg (n = 26))?
The value was “(7.7) %”.

And the “TEAEs leading to early discontinuation of study drug: All, %” value (“TEAEs leading … All, %” below) (300 mg (n = 26))?
The value was “(3.8) %”.

What about the “TEAEs leading to early discontinuation of study drug: Nausea, %” value (300 mg (n = 26)) of the same molecule?
Its value is “(3.8) %”.

What about the “TEAEs leading to early discontinuation of study drug: Vomiting, %” value (300 mg (n = 26)) of the same molecule?
Its value is “(3.8) %”.

What about the “Treatment-related TEAE, % of subjects” value (300 mg (n = 26)) of the same molecule?
The value was “(15.4) %”.

And the “Treatment-related TEAE, n of subjects” value (300 mg (n = 26))?
The value was 4 n.

And the “Treatment-related TEAE, % of subjects” value (300 mg (n = 26), listed as omadacycline)?
The value was 15.4%.

What about the “median change in alanine aminotransferase (ALT) concentration between baseline and Day 5” value (shortened to “median change”) (300 mg omadacycline) of the same molecule?
Its value is −2.0 IU/L.

And the “Any TEAE, % of subjects” value (450 mg (n = 24))?
Its value is “(12.5) %”.

What about the “Any TEAE, n of subjects” value (450 mg (n = 24)) of the same molecule?
Its value is 3 n.

And the “Most frequent TEAEs: ALT increased, %” value (450 mg (n = 24))?
Its value is “(4.2) %”.

What about the “Most frequent TEAEs: Nausea, %” value (450 mg (n = 24)) of the same molecule?
The value was “(4.2) %”.

What about the “TEAEs leading to early discontinuation of study drug: ALT increased, %” value (450 mg (n = 24)) of the same molecule?
Its value is “(4.2) %”.

And the “TEAEs leading … All, %” value (450 mg (n = 24))?
Its value is “(4.2) %”.

And the “Treatment-related TEAE, % of subjects” value (450 mg (n = 24))?
The value was “(8.3) %”.

What about the “Treatment-related TEAE, n of subjects” value (450 mg (n = 24)) of the same molecule?
The value was 2 n.

And the “Treatment-related TEAE, % of subjects” value (450 mg (n = 24), listed as omadacycline)?
The value was 8.3%.

And the “median change” value (450 mg omadacycline)?
Its value is 5.0 IU/L.

What about the “Any TEAE, % of subjects” value (600 mg (n = 24)) of the same molecule?
The value was “(25.0) %”.

What about the “Any TEAE, n of subjects” value (600 mg (n = 24)) of the same molecule?
The value was 6 n.

What about the “Most frequent TEAEs: ALT increased, %” value (600 mg (n = 24)) of the same molecule?
Its value is “(4.2) %”.

And the “Most frequent TEAEs: Diarrhea, %” value (600 mg (n = 24))?
Its value is “(8.3) %”.

What about the “Most frequent TEAEs: Dizziness, %” value (600 mg (n = 24)) of the same molecule?
The value was “(4.2) %”.

What about the “Most frequent TEAEs: Nausea, %” value (600 mg (n = 24)) of the same molecule?
The value was “(16.7) %”.

What about the “Most frequent TEAEs: Vomiting, %” value (600 mg (n = 24)) of the same molecule?
Its value is “(4.2) %”.

And the “TEAEs leading … All, %” value (600 mg (n = 24))?
The value was “(4.2) %”.

And the “TEAEs leading to early discontinuation of study drug: Lipase increased, %” value (600 mg (n = 24))?
The value was “(4.2) %”.

And the “Treatment-related TEAE, % of subjects” value (600 mg (n = 24))?
Its value is “(25.0) %”.

What about the “Treatment-related TEAE, n of subjects” value (600 mg (n = 24)) of the same molecule?
The value was 6 n.

What about the “Most frequent TEAEs: Nausea, %” value [1] of the same molecule?
The value was 16.7%.

What about the “Treatment-related TEAE, % of subjects” value [1] of the same molecule?
Its value is 25.0%.

What about the “median change” value (600 mg omadacycline) of the same molecule?
The value was 19.5 IU/L.

And the “serious TEAEs (SAEs)” value [2]?
Its value is “no serious TEAEs (SAEs) reported”.

And the “severity of TEAEs” value [2]?
Its value is “either mild or moderate in severity”.

What about the “Any TEAE, % of subjects” value (Omadacycline Overall (n = 26)) of the same molecule?
The value was “(38.5) %”.

What about the “Any TEAE, n of subjects” value (Omadacycline Overall (n = 26)) of the same molecule?
Its value is 10 n.

And the “Most frequent TEAEs: ALT increased, %” value (Omadacycline Overall (n = 26))?
Its value is “(7.7) %”.

And the “Most frequent TEAEs: Diarrhea, %” value (Omadacycline Overall (n = 26))?
Its value is “(7.7) %”.

What about the “Most frequent TEAEs: Dizziness, %” value (Omadacycline Overall (n = 26)) of the same molecule?
Its value is “(11.5) %”.

And the “Most frequent TEAEs: Nausea, %” value (Omadacycline Overall (n = 26))?
The value was “(23.1) %”.

And the “Most frequent TEAEs: Vomiting, %” value (Omadacycline Overall (n = 26))?
Its value is “(11.5) %”.

What about the “TEAEs leading to early discontinuation of study drug: ALT increased, %” value (Omadacycline Overall (n = 26)) of the same molecule?
Its value is “(3.8) %”.

What about the “TEAEs leading … All, %” value (Omadacycline Overall (n = 26)) of the same molecule?
Its value is “(11.5) %”.

And the “TEAEs leading to early discontinuation of study drug: Lipase increased, %” value (Omadacycline Overall (n = 26))?
Its value is “(3.8) %”.

What about the “TEAEs leading to early discontinuation of study drug: Nausea, %” value (Omadacycline Overall (n = 26)) of the same molecule?
The value was “(3.8) %”.

And the “TEAEs leading to early discontinuation of study drug: Vomiting, %” value (Omadacycline Overall (n = 26))?
Its value is “(3.8) %”.

What about the “Treatment-related TEAE, % of subjects” value (Omadacycline Overall (n = 26)) of the same molecule?
The value was “(34.6) %”.

What about the “Treatment-related TEAE, n of subjects” value (Omadacycline Overall (n = 26)) of the same molecule?
The value was 9 n.

What about the “Any TEAE, % of subjects” value (Omadacycline Overall (n = 26), listed as omadacycline) of the same molecule?
Its value is 38.5%.

And the “nausea, % of subjects” value (omadacycline 300 and 450 mg dose groups)?
The value was at most 7.7%.

And the “highest individual ALT value” (subject who received 450 mg in Period 1 then 300 mg in Period 2)?
The value was 150 IU/L.
